The source made the active and inactive calls.
Key:
[1] = target: Heat shock protein HSP 90-alpha (Homo sapiens, UniProt P07900); format: functional, organism-based
[2] = Luminescence Cell-Based Dose Confirmation HTS to Identify Activators of 5'UTR Stem-Loop Driven Alpha-Synuclein mRNA Translation in H4 Neuroglioblastoma Cells. [Related pubchem assays: 1829 (Project Summary), 1814 (Primary HTS)]; format: functional
[3] = system: H4; assay: Luminescence Cell-Based Dose Response HTS to Identify Activators of 5'UTR Stem-Loop Driven Prion Protein mRNA Translation in H4 Neuroglioblastoma Cells. [Related pubchem assays: 1829 (Project Summary), 1814 (Primary HTS)]; format: functional; conditions: Homo sapiens
[4] = Luminescence Cell-Based Dose Response HTS to Identify Activators of Luciferase Translation or Activity in H4 […] Cells. [Related pubchem assays: 1829 (Project Summary), 1814 (Primary HTS)]; format: functional
[5] = target: T1, Microphthalmia-associated transcription factor (Homo sapiens, UniProt O75030); assay: reducers of TRPM1 reporter luminescence, concentration series – cell-based, SK-MEL-5, cherry-picked, set 3, MITF inhibitor project, dose response (AID 493073); format: functional;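 note: SK-MEL-5 melanoma cells with luciferase driven by the MITF target TRPM1 promoter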
T1 sequence (O75030 whole entry): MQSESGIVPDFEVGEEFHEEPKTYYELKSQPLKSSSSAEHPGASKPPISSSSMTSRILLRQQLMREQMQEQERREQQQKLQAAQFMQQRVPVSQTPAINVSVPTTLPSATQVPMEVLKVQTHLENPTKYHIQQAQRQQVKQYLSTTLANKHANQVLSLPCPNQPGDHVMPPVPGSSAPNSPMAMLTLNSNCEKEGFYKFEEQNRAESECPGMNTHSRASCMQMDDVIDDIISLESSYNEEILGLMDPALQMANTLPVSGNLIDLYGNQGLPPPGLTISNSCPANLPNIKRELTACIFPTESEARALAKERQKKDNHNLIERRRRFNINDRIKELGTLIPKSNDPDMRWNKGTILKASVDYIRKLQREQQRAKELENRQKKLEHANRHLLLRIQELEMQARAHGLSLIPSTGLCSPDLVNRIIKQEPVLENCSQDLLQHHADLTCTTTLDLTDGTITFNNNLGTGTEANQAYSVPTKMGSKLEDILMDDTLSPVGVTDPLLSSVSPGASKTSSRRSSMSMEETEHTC

[6] = target: Nonstructural protein 1 (Influenza A virus, UniProt Q194T2); format: functional, Influenza A virus (A/California/07/2009(H1N1))
[7] = system: INS1; assay: INS-1E survival protection against cytokine death – cell-based, luminescence, retest, dose response (AID 449756); format: functional; conditions: Rattus norvegicus;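 note: cell death triggered by IL-1 beta plus TNF-alpha plus IFN-gamma mixture; protective hits raise ATP signal compared with cytokine alone wells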
[8] = cells; format: functional
[9] = target: T2, Aminopeptidase N (Plasmodium falciparum FcB1/Columbia, UniProt O96935); assay: malaria alanyl aminopeptidase activity blockers – biochemical, fluorogenic H-Leu-NHMec substrate, 1536-well (AID 1445); set-up: species or system Plasmodium falciparum 3D7, 3D7
T2 sequence (O96935 whole entry): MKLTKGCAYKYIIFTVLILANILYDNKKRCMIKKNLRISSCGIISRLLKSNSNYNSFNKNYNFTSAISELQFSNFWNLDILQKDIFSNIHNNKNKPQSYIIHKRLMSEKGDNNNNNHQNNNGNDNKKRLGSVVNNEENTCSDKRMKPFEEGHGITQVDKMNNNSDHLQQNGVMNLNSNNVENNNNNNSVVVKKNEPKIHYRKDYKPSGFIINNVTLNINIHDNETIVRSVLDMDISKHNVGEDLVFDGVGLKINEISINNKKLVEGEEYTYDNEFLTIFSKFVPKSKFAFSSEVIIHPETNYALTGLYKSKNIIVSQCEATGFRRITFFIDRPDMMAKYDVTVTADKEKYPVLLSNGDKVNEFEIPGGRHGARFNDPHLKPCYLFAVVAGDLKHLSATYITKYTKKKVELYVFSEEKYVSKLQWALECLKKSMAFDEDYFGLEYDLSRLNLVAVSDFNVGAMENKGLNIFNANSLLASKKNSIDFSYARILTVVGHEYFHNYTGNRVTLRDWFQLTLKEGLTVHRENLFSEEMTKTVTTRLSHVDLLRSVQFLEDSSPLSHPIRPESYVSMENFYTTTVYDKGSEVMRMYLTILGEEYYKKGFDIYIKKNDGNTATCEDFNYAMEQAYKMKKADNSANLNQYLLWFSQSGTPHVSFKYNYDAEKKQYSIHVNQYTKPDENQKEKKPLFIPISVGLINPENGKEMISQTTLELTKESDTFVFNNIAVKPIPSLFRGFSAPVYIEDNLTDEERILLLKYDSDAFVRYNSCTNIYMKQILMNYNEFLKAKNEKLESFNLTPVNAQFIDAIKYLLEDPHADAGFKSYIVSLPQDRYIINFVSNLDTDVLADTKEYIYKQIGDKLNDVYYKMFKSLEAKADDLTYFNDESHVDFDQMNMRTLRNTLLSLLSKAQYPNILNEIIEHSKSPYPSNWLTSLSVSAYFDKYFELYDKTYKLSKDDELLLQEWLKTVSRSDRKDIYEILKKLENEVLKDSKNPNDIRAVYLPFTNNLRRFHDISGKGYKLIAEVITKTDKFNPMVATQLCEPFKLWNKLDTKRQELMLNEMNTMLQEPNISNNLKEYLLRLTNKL

[10] = target: T3, Replicative DNA helicase DnaB (Mycobacterium tuberculosis, UniProt P9WMR3); assay: DnaB intein splicing inhibitors, dose response, biochemical, cell-free fluorescence (AID 449749); format: functional
T3 sequence (P9WMR3 whole entry): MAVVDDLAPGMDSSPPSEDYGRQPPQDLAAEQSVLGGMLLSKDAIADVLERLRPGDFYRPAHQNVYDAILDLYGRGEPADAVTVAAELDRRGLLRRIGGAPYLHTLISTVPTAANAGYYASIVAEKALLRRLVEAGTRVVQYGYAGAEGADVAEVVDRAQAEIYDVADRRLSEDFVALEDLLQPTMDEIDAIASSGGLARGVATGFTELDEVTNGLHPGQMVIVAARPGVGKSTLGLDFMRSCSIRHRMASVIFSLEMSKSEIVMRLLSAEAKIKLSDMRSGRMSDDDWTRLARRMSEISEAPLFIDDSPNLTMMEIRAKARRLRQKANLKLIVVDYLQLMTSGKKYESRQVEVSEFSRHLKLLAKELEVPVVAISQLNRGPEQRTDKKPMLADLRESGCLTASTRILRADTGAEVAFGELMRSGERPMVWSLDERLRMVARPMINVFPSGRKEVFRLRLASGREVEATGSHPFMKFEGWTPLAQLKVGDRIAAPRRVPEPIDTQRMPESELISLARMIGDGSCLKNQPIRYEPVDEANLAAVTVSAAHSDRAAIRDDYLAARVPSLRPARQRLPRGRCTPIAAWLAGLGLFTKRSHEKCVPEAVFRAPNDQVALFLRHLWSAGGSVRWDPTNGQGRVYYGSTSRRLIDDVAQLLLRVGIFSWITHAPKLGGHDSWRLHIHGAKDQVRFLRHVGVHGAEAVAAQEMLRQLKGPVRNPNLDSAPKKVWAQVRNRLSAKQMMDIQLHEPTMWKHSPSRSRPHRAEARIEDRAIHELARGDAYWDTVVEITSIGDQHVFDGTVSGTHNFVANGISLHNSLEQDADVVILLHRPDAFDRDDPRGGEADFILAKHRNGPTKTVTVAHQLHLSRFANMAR

[11] = target: T4, Heat shock factor protein 1 (Mus musculus, UniProt P38532); assay: enhancement of HSF1-driven luciferase signal – cell-based, NIH3T3, luminescence, dose retest, confirmation (AID 435004); format: functional;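 note: stress induced by proteasome inhibitor MG132 added 30 min after compound; luciferase reporter driven by HSF1 response element in NIH3T3 cells; actives raise luminescence as potentiators of the MG132 stress response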
T4 sequence (P38532 whole entry): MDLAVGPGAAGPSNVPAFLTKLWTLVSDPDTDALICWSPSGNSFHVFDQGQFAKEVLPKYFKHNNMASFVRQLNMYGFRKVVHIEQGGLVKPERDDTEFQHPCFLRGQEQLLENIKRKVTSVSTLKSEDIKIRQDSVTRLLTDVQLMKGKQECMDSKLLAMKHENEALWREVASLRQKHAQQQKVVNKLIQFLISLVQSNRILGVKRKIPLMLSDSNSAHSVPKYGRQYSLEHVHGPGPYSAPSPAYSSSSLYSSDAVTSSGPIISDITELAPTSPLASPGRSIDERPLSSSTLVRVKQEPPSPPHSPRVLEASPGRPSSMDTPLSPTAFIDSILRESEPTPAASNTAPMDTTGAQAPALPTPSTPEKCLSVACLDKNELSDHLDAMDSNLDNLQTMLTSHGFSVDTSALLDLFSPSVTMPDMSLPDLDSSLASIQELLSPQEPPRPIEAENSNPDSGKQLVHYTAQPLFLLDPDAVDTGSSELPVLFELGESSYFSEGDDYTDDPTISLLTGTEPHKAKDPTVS

[12] = target: T5, Protein RecA (Mycobacterium tuberculosis, UniProt P9WHJ3); assay: Fluorescence Cell-Free Homogeneous Dose Retest to Identify Inhibitors of RecA-Intein Splicing Activity. [Related pubchem assays (depositor defined):AID2097, AID2223, AID489010, AID492950]; format: functional
T5 sequence (P9WHJ3 whole entry): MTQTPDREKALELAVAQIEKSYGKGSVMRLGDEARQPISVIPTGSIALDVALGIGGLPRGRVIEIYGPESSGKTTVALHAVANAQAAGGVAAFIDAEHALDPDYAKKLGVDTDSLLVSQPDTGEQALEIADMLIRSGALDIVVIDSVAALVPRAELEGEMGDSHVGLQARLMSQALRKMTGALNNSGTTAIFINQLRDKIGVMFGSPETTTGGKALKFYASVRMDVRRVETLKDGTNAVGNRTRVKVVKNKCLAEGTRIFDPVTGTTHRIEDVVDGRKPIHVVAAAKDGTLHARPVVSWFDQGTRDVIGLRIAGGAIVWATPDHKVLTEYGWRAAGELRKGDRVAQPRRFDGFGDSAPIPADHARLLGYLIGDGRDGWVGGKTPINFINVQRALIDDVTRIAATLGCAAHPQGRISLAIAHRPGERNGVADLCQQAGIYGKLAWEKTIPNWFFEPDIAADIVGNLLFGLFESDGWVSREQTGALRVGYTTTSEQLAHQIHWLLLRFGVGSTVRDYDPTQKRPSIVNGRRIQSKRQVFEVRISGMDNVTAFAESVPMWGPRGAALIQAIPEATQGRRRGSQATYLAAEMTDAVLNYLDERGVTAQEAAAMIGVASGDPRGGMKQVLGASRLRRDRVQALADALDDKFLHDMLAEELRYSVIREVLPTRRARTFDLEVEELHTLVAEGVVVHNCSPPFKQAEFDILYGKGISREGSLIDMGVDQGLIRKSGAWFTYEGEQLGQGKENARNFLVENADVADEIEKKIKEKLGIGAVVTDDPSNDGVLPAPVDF

[13] = target: Large T antigen (Simian virus 40, UniProt P03070); format: functional, Betapolyomavirus macacae;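 note: Confirmatory-stage PubChem screen for compounds that inhibit SV40 T antigen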
[14] = target: T6, Ubiquitin-conjugating enzyme E2 N (Homo sapiens, UniProt P61088); format: functional
T6 sequence (P61088 whole entry): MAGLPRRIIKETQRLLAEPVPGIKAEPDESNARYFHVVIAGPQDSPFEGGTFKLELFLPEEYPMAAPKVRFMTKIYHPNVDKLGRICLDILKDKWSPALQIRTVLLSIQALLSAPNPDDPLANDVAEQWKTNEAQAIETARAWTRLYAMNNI

[15] = target: T7, Bcl-2-related protein A1 (Mus musculus, UniProt Q07440); format: functional;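 note: confirmatory dose–response counterscreen on Bfl-1, used to check hits from a UBC13 polyubiquitin inhibitor campaign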
T7 sequence (Q07440 whole entry): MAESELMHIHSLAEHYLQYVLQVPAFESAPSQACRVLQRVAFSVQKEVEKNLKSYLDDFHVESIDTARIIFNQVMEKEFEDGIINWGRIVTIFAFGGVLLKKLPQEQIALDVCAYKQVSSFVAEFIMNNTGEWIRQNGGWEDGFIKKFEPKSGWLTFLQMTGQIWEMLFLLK

[16] = target: T6, Ubiquitin-conjugating enzyme E2 N; format: functional; remark: listed apart in the source
[17] = HIV-1 AD8 envelope cell-cell fusion blockers – cherry-pick, dose response (AID 652062); format: functional, cell-based;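 note: luciferase signal from cell-cell fusion driven by HIV-1 clade B AD8 Env; potency is for inhibitors of fusion seen as a drop in luminescence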
[18] = blockers of HIV-1 envelope-mediated cell-cell fusion – cherry-pick, dose response (AID 652057); format: functional, cell-based
[19] = blockers of HIV-1 ZM109 envelope-driven cell-cell fusion – HeLa effector, CEM target cells, luciferase, cherry-pick, dose response (AID 652058); format: functional, cell-based;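 note: luciferase signal from HIV-1 Env mediated cell-cell fusion of effector and target cells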

Nonstructural protein 1, sequence (Q194T2 whole entry): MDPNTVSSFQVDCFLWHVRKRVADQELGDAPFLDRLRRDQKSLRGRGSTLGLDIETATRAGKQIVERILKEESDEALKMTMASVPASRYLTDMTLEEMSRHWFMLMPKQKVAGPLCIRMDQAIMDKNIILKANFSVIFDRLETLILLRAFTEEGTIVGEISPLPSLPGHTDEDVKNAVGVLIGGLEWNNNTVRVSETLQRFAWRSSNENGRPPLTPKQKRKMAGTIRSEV
Large T antigen, sequence (P03070 whole entry): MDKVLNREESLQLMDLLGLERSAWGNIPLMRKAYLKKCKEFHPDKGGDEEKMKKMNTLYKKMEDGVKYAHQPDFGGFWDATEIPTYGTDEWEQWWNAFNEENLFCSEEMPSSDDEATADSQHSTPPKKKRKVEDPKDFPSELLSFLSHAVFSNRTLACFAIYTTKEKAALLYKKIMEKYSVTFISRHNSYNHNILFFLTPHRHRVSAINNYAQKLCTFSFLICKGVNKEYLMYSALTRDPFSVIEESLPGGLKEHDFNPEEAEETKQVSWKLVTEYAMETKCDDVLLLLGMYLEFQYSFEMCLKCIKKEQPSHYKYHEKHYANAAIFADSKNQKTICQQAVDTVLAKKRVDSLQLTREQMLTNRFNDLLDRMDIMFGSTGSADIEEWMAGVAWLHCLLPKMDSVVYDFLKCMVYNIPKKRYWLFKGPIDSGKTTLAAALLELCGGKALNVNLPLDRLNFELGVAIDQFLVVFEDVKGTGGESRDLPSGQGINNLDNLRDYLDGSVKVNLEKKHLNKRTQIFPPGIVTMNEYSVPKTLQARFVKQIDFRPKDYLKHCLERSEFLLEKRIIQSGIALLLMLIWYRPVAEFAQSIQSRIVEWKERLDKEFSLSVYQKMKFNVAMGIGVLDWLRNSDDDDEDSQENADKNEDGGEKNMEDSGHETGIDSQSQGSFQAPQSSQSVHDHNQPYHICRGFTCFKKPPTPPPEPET

In the case of `O=C1CC(c2ccccc2)=NN1c1nc(-c2ccccc2)cs1`, the AC50 [1] is reported as 3.34 µM (active), the EC50 [2] is reported as 13.2 µM (active) and the EC50 [3] is reported as > 120 µM (not active). The EC50 [4] was 11.4 µM (active).

In the case of `CN(C)C1CCN(Cc2cc(COCc3ccccc3)c3cccnc3c2O)C1` (configuration not stated), the AC50 [5] is reported as 9.99 µM (active), the IC50 [6] is reported as 5.98 µM (active) and the AC50 [7] is reported as 2.78 µM (active).

In the case of `O=C1OC(/C(=C\Nc2cc(Cl)ccc2O)[N+](=O)[O-])c2ccccc21` (configuration not stated), the IC50 [8] is reported as 11.7 µM (active) and the IC50 [9] is reported as 48.8 µM (active).

With `Cc1c(C#N)c(NC(=O)CCl)n(Cc2ccccc2)c1C` the AC50 [5] was 11.2 µM (active), the AC50 [10] was 21.5 µM (active) and the EC50 [11] was > 260 µM (inactive). The EC50 [12] was 3.39 µM (active).

For `O=C1CCC(=O)N1c1nc2n(n1)C(c1ccccc1)C=C(c1ccc(Br)cc1)N2` (configuration not stated), the IC50 [9] was 69.7 µM (active).

In the case of `CCN(CC)CCNC(=O)c1ccc(NC(=O)c2cccc(S(=O)(=O)N3c4ccccc4CC3C)c2)cc1` (configuration not stated), the AC50 [5] is reported as 10.5 µM (active).

For `Cc1sc2nc(C3CC3)nc(SCC(=O)NCc3ccco3)c2c1C`, the AC50 [1] was 5.75 µM (active).

In the case of `CCN(CC)S(=O)(=O)c1ccc(C(=O)Oc2coc(CSc3nc(C)cc(C)n3)cc2=O)cc1`, the IC50 [13] is reported as 40.4 µM (active).

For `CC(NC(=O)c1ccc(Br)cc1)c1ccc2c(c1)CCCC2` (configuration not stated), the AC50 [1] was 2.75 µM (active).

For `O=C(CSc1nc2ccsc2c(=O)n1Cc1ccccc1)NCc1ccco1`, the IC50 [14] was > 20 µM (inactive), the IC50 [15] was > 20 µM (inactive) and the IC50 [16] was 18.1 µM (active).

In the case of `CSC(=S)NN=C(C)c1cccc(C)n1`, the AC50 [1] is reported as 23.7 µM (active) and the IC50 [6] is reported as 1.1 µM (active).

With `Cc1ccc(S(=O)(=O)N(C)C[C@@H]2Oc3ncc(/C=C/c4ccccc4)cc3C(=O)N([C@H](C)CO)C[C@@H]2C)cc1` the AC50 [17] was 3.55 µM (active), the AC50 [18] was 577 nM (active) and the AC50 [19] was 2.57 µM (active).

With `Cc1nc(NS(=O)(=O)c2ccccc2)sc1C(=O)N/N=C/c1ccccc1` the IC50 [9] was 50.1 µM (active).

— ChEMBL document CHEMBL1201862, “PubChem BioAssay data set” (2004)
